In publication PMC10807611 (Cancer chemotherapy and pharmacology, 2023):
Values belong to the compound of their own block, whether it stands above or below them.

What was measured:
[1] = Plasma pharmacokinetics on cycle 1 day 1; assay type: in vivo; settings: human
[2] = test system: patients with relapsed/refractory AML or MDS; settings: days 1–5 and 8–12 in combination with bortezomib; cited from earlier work
[3] = test system: patients in the registration trial; settings: package insert; cited from earlier work

Cmax ([1]; in vivo, Cmax concentrations): ~500 nM | V/F ([1]; in vivo, po): 784.6 ± 204.3 L | Cl/F ([1]; in vivo, po, 225 mg): 57.0 ± 13.6 L/h | Tmax ([1]; in vivo, po, 225 mg): 3 h | AUC(0-inf) ([1]; in vivo, po, 225 mg, AUCINF): 7.41 µM·h | half-life ([1]; in vivo, po, 225 mg, T1/2): 9.7 ± 1.93 h
Structure (SMILES): C=CCn1c(=O)c2cnc(Nc3ccc(N4CCN(C)CC4)cc3)nc2n1-c1cccc(C(C)(C)O)n1 [Adavosertib, adavosertib]

AUCINF ([1]; in vivo, iv, 800 mg/m2): 396.0 ± 151.1 (6) μM·h | T1/2 ([1]; in vivo, iv, 800 mg/m2): 3.51 ± 0.95 (6) h | AUCINF ([1]; in vivo, iv, 1000 mg/m2): 668.6 ± 452.2 (4) μM·h | T1/2 ([1]; in vivo, iv, 1000 mg/m2): 4.41 ± 1.30 (4) h
Structure (SMILES): O=C(/C=C/c1cccc(S(=O)(=O)Nc2ccccc2)c1)NO[C@@H]1O[C@H](C(=O)O)[C@@H](O)[C@H](O)[C@H]1O [Belinostat glucuronide, belinostat glucuronide]

Structure (SMILES): O=C(/C=C/c1cccc(S(=O)(=O)Nc2ccccc2)c1)NO [Belinostat, belinostat]
clearance ([1]; plasma, iv, 800 mg/m2): 643 mL/min | Tmax ([1]; plasma, iv, 1000 mg/m2): 0.4 h | clearance ([1]; plasma, iv, 1000 mg/m2): 657 mL/min | Maximum tolerated dose (MTD) [2]: 1000 mg/m^2 | Patients with QTc prolongation, all grades [3]: 11%
